Source: patent US9314444B2, “Composition and method for treatment of NASH” (BioKier Inc., priority 2009, dated 2016)

Tests used:
[1] = system: cell lines derived from L-cells; conditions: cited from earlier work
[2] = system: GLP-1; assay: Colon delivered L-glutamine, GLP-1 secretion in human diabetic subjects; assay type: in vivo
[3] = system: GLP-1 and PYY; assay: Direct colonic delivery, secretion of gut hormones from the colon; assay type: in vivo; conditions: upper gut bypassed
[4] = system: L-cells in the colon; conditions: dosed orally and unformulated; cited from earlier work
[5] = system: rat liver; conditions: butyrate formed from carbohydrates via fermentation in the rat colon; cited from earlier work

NC(=O)CC[C@H](N)C(=O)O [L-glutamine]
secretion of gut hormones [1]: induce secretion
secretion of GLP-1 [2]: increased
secretion of GLP-1 from the colon [3]: increase
secretion of PYY from the colon [3]: increase
minimum effective amount [4]: 30 grams
toxic dose [4]: ≥ 30 grams

CCCC(=O)O [butyric acid]
secretion of gut hormones [1]: induce secretion
fat in the rat liver [5]: reduces
secretion of GLP-1 from the colon [3]: increase
secretion of PYY from the colon [3]: increase
minimum effective amount [4]: 30 grams

CCC(=O)O [propionic acid]
secretion of gut hormones [1]: induce secretion
secretion of GLP-1 from the colon [3]: increase
secretion of PYY from the colon [3]: increase
minimum effective amount [4]: 30 grams
